Test systems include NCI-H460 lung; HT29 colon; SF-295 CNS; A549 NSCLC; UACC-257 melanoma; OVCAR-8 ovarian; OVCAR-5 ovarian; SN12C renal; EKVX NSCLC; SK-MEL-5 melanoma.
Holding throughout (assay): DTP human tumour cell line panel, 48 h

The structures appear in SMILES notation.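 Each compound was tested at five concentrations against cells in 96-well plates for 48 hours. GI50: concentration for 50% inhibition of growth. TGI: total growth inhibition.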

In the case of `COc1cccc(NC(=O)CC(=O)n2nc(-c3ccccc3)c(N=Nc3ccc(Cl)cc3)c2-c2ccccc2)c1`, the TGI in the experiment on NCI-H460 lung was over 92.5 µM; in the experiment on HT29 colon it was 56.7 µM; with SF-295 CNS, over 88.8 µM; with A549 NSCLC, over 85.7 µM; in the experiment on UACC-257 melanoma, over 100 µM; in the experiment on OVCAR-8 ovarian, 68.3 µM. Further, the TGI in the experiment with OVCAR-5 ovarian was over 100 µM; in the experiment with SN12C renal, over 100 µM; in the experiment on EKVX NSCLC, 92.8 µM; with SK-MEL-5 melanoma, 53.8 µM.

Regarding `CSc1nnc(SCc2nn3c(=O)cc(C)nc3s2)s1`, the TGI in the experiment on NCI-H460 lung, in the experiment with HT29 colon, in the experiment on SF-295 CNS, in the experiment with A549 NSCLC, with UACC-257 melanoma and in the experiment with OVCAR-8 ovarian was over 100 µM each time. Moreover, the TGI with OVCAR-5 ovarian, in the experiment on SN12C renal, in the experiment on EKVX NSCLC and in the experiment with SK-MEL-5 melanoma was over 100 µM throughout.

In the case of `Cc1cc(S(=O)(=O)Nc2nc3cscc3c(=O)n2N)c(S)cc1Cl`, the total growth inhibition concentration (TGI) with NCI-H460 lung, with HT29 colon, in the experiment on SF-295 CNS, in the experiment with A549 NSCLC, in the experiment with UACC-257 melanoma and in the experiment with OVCAR-8 ovarian was over 100 µM in each case. Besides, the TGI with OVCAR-5 ovarian is 64 µM; in the experiment on SN12C renal, over 100 µM; with EKVX NSCLC, over 100 µM; in the experiment with SK-MEL-5 melanoma, over 100 µM.

Turning to `CCOC(=O)C1CCC(=O)N1C(=O)c1cccc(Cl)c1` (stereo not given), the TGI with NCI-H460 lung, in the experiment with HT29 colon, in the experiment on SF-295 CNS, in the experiment with A549 NSCLC, with UACC-257 melanoma and in the experiment with OVCAR-8 ovarian was over 100 µM in each case. Besides, the TGI with OVCAR-5 ovarian, with SN12C renal, with EKVX NSCLC and in the experiment on SK-MEL-5 melanoma was over 100 µM in each case.

In the case of `O=c1[nH]c2ccccc2c(O)c1/C=N/C(=S)NC1CCCCC1`, the TGI in the experiment with NCI-H460 lung, in the experiment on HT29 colon, with SF-295 CNS, in the experiment with A549 NSCLC, in the experiment with UACC-257 melanoma and in the experiment on OVCAR-8 ovarian was over 100 µM each time. Also, the TGI in the experiment with OVCAR-5 ovarian, with SN12C renal, in the experiment with EKVX NSCLC and in the experiment with SK-MEL-5 melanoma was over 100 µM throughout.

As for `COc1cc2c3c(n(C)c(=O)c2cc1OC)-c1cc2c(cc1/C3=C\CCCCCBr)OCO2`, the TGI is 69.8 µM in the experiment on NCI-H460 lung; over 100 µM with HT29 colon; over 100 µM in the experiment on SF-295 CNS; over 100 µM in the experiment with A549 NSCLC; over 100 µM in the experiment on UACC-257 melanoma; over 100 µM in the experiment on OVCAR-8 ovarian. For the same molecule, the TGI is over 100 µM with OVCAR-5 ovarian, over 100 µM in the experiment on SN12C renal, over 100 µM with EKVX NSCLC and 20.7 µM in the experiment on SK-MEL-5 melanoma.

Take `O=C(O)Cn1c2c(c3c1-c1ccccc1C3=O)C(=O)CCC2`: the GI50 in the experiment with NCI-H460 lung, in the experiment with HT29 colon, in the experiment with SF-295 CNS, with A549 NSCLC, in the experiment on UACC-257 melanoma and in the experiment on OVCAR-8 ovarian was over 100 µM in each case. For the same molecule, the GI50 in the experiment on OVCAR-5 ovarian, in the experiment on SN12C renal, with EKVX NSCLC and in the experiment with SK-MEL-5 melanoma was over 100 µM each time. Moreover, the TGI in the experiment with NCI-H460 lung, with HT29 colon, in the experiment with SF-295 CNS, in the experiment on A549 NSCLC, in the experiment on UACC-257 melanoma and with OVCAR-8 ovarian was over 100 µM throughout. Further, the TGI in the experiment with OVCAR-5 ovarian, with SN12C renal, with EKVX NSCLC and with SK-MEL-5 melanoma was over 100 µM each time.

`O=c1c2ccccc2nc(N/N=C/c2ccc([N+](=O)[O-])cc2)n1-c1ccccc1`: the TGI in the experiment with NCI-H460 lung is over 100 µM; in the experiment with HT29 colon, over 100 µM; in the experiment with SF-295 CNS it was 62.2 µM; in the experiment on A549 NSCLC it was over 100 µM; in the experiment on UACC-257 melanoma, over 100 µM; in the experiment with OVCAR-8 ovarian, over 100 µM. In addition, the TGI is over 100 µM with OVCAR-5 ovarian, over 100 µM in the experiment with SN12C renal, 79.6 µM in the experiment on EKVX NSCLC and over 100 µM with SK-MEL-5 melanoma.

With `NC1CCCCC1NCCNC1CCCCC1N` (stereo not given), the TGI was over 100 µM in the experiment with NCI-H460 lung; 36 µM in the experiment on HT29 colon; over 100 µM in the experiment with SF-295 CNS; 87.6 µM in the experiment with A549 NSCLC; over 100 µM in the experiment on UACC-257 melanoma; over 100 µM in the experiment with OVCAR-8 ovarian. The TGI in the experiment with OVCAR-5 ovarian is 56.6 µM; with SN12C renal it was over 100 µM; in the experiment with EKVX NSCLC, over 100 µM; in the experiment on SK-MEL-5 melanoma, over 100 µM.

On to `O=C(c1ccccc1)c1nnn(Cc2ccccc2Cn2nnc(C(=O)c3ccccc3)c2C(=O)c2ccccc2)c1C(=O)c1ccccc1`, for which the TGI in the experiment with NCI-H460 lung, in the experiment with HT29 colon, in the experiment on SF-295 CNS, in the experiment on A549 NSCLC, in the experiment on UACC-257 melanoma and in the experiment on OVCAR-8 ovarian was over 100 µM in each case. Further, the TGI in the experiment on OVCAR-5 ovarian, in the experiment with SN12C renal, in the experiment on EKVX NSCLC and in the experiment with SK-MEL-5 melanoma was over 100 µM in each case.

In the case of `c1ccc2c(Nc3ncco3)cccc2c1`, the TGI in the experiment on NCI-H460 lung, in the experiment with HT29 colon, in the experiment with SF-295 CNS, in the experiment with A549 NSCLC, with UACC-257 melanoma and in the experiment on OVCAR-8 ovarian was over 10 µM each time. Further, the TGI in the experiment on OVCAR-5 ovarian, in the experiment on SN12C renal, in the experiment with EKVX NSCLC and in the experiment with SK-MEL-5 melanoma was over 10 µM throughout.

On to `O=C(Nc1ccc(-n2cc(-c3ccncc3)c(-c3ccc(O)c(Cl)c3)n2)cc1)c1ccc(Cl)c(C(F)(F)F)c1`, for which the GI50 with NCI-H460 lung is 1.94 µM; in the experiment with HT29 colon it was 1.2 µM; with SF-295 CNS it was 1.35 µM; with A549 NSCLC, 2.09 µM; in the experiment with UACC-257 melanoma it was 4.87 µM; with OVCAR-8 ovarian, 1.84 µM. The GI50 is 10.1 µM with OVCAR-5 ovarian, 2.57 µM in the experiment on SN12C renal, 4.83 µM in the experiment with EKVX NSCLC and 1.46 µM in the experiment with SK-MEL-5 melanoma. Besides, the TGI in the experiment with NCI-H460 lung is over 50 µM; in the experiment on HT29 colon, 2.72 µM; in the experiment on SF-295 CNS, 4.15 µM; with A549 NSCLC, over 50 µM; in the experiment with UACC-257 melanoma, 34.5 µM; in the experiment on OVCAR-8 ovarian, 9.58 µM. For the same molecule, the TGI in the experiment on OVCAR-5 ovarian was over 50 µM; with SN12C renal, over 50 µM; in the experiment on EKVX NSCLC it was over 50 µM; with SK-MEL-5 melanoma it was 5.67 µM.

As to `Cc1c(OCc2cccc3ccccc23)ccc2c(=O)cc(SCCN3CCOCC3)oc12`, the TGI in the experiment with NCI-H460 lung, in the experiment with HT29 colon, in the experiment on SF-295 CNS, with A549 NSCLC, in the experiment with UACC-257 melanoma and in the experiment on OVCAR-8 ovarian was over 100 µM in each case. The TGI in the experiment on OVCAR-5 ovarian, in the experiment with SN12C renal, in the experiment on EKVX NSCLC and in the experiment on SK-MEL-5 melanoma was over 100 µM each time.

`O=C1C=CC(=O)c2c1ccc1c3ccccc3n(Cc3ccccc3)c21`: the TGI in the experiment with NCI-H460 lung is over 100 µM; with HT29 colon, 57 µM; in the experiment with SF-295 CNS, over 100 µM; in the experiment on A549 NSCLC it was over 100 µM; with UACC-257 melanoma it was 40.9 µM; in the experiment on OVCAR-8 ovarian it was over 100 µM. Further, the total growth inhibition concentration (TGI) in the experiment with OVCAR-5 ovarian was 72.4 µM; with SN12C renal, 42.9 µM; with EKVX NSCLC, over 100 µM; in the experiment on SK-MEL-5 melanoma, over 90 µM.

Take `O=c1[nH]cc(N=Cc2cc(Cl)ccc2O)c(=O)[nH]1`: the TGI with NCI-H460 lung was over 100 µM; in the experiment on HT29 colon it was over 100 µM; in the experiment with SF-295 CNS it was 42.1 µM; in the experiment with A549 NSCLC, over 100 µM; in the experiment with UACC-257 melanoma, over 100 µM; in the experiment with OVCAR-8 ovarian, 76.9 µM. The TGI with OVCAR-5 ovarian, with SN12C renal, in the experiment on EKVX NSCLC and with SK-MEL-5 melanoma was over 100 µM each time.

The record behind these values is PubChem BioAssay (NCI).
